In ChEMBL document CHEMBL2073958, “Active transport of imatinib into and out of cells: implications for drug resistance” (Blood, 2004):

Biological target: ATP-dependent translocase ABCB1 (Homo sapiens, UniProt P08183)
Test: TP_TRANSPORTER: transepithelial transport in MDR1-transfected MDCKII cells
Assay type: functional, cell-based
Settings: dog, mdck-ii

Sequence of ATP-dependent translocase ABCB1 (P08183 whole entry): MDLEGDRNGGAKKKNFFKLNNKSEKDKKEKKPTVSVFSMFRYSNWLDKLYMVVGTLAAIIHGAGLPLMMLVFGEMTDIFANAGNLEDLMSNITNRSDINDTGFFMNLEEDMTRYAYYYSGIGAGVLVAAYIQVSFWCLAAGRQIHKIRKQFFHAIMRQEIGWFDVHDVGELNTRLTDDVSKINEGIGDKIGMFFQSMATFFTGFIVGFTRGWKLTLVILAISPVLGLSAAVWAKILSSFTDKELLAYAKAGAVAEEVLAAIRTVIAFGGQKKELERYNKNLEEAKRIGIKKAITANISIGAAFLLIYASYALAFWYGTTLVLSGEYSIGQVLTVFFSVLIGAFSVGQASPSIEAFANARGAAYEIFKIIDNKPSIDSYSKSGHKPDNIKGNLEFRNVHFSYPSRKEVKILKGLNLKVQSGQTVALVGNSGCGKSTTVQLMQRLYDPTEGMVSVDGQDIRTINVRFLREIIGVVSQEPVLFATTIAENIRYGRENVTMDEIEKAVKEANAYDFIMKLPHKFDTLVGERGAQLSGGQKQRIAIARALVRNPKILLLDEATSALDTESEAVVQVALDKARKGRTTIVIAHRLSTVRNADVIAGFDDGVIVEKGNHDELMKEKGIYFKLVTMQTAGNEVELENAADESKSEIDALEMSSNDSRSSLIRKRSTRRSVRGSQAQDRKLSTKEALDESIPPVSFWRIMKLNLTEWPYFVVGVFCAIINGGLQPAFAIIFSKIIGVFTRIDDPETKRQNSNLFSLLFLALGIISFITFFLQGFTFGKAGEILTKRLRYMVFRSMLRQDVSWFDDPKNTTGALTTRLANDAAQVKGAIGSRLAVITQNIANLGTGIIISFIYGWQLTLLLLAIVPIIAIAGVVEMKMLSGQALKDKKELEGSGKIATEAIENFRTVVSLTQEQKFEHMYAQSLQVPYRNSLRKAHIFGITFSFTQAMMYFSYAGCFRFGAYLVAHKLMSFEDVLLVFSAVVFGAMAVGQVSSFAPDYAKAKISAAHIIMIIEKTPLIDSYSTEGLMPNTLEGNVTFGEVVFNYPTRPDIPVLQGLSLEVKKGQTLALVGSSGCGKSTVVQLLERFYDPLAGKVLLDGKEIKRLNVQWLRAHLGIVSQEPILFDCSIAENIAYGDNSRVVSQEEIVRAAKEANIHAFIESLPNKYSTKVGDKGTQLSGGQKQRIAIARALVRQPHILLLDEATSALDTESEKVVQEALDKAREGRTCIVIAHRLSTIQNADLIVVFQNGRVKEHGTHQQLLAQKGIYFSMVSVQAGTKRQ

Activity: substrate [+]
SMILES: Cc1ccc(NC(=O)c2ccc(CN3CCN(C)CC3)cc2)cc1Nc1nccc(-c2cccnc2)n1 [IMATINIB]
